From patent publication US20240246942A1, “KINASE INHIBITORS FOR THE TREATMENT OF NEURODEGENERATIVE DISEASES” (priority 2020, published 2024)

Columns and labels:
Test in all cases: biochemical
[1] = target: T1, panel of 374 wild-type kinases (Homo sapiens, UniProt P22607); conditions: read-out: % Enzyme Activity (relative to DMSO controls), FGFR3
T1 construct: purchased Reaction Biology Corporation

[2] = target: T2, panel of 374 wild-type kinases (Homo sapiens, UniProt P42684); conditions: read-out: % Enzyme Activity (relative to DMSO controls), ABL2/ARG
T2 construct: purchased Reaction Biology Corporation
T2 sequence (P42684 whole entry): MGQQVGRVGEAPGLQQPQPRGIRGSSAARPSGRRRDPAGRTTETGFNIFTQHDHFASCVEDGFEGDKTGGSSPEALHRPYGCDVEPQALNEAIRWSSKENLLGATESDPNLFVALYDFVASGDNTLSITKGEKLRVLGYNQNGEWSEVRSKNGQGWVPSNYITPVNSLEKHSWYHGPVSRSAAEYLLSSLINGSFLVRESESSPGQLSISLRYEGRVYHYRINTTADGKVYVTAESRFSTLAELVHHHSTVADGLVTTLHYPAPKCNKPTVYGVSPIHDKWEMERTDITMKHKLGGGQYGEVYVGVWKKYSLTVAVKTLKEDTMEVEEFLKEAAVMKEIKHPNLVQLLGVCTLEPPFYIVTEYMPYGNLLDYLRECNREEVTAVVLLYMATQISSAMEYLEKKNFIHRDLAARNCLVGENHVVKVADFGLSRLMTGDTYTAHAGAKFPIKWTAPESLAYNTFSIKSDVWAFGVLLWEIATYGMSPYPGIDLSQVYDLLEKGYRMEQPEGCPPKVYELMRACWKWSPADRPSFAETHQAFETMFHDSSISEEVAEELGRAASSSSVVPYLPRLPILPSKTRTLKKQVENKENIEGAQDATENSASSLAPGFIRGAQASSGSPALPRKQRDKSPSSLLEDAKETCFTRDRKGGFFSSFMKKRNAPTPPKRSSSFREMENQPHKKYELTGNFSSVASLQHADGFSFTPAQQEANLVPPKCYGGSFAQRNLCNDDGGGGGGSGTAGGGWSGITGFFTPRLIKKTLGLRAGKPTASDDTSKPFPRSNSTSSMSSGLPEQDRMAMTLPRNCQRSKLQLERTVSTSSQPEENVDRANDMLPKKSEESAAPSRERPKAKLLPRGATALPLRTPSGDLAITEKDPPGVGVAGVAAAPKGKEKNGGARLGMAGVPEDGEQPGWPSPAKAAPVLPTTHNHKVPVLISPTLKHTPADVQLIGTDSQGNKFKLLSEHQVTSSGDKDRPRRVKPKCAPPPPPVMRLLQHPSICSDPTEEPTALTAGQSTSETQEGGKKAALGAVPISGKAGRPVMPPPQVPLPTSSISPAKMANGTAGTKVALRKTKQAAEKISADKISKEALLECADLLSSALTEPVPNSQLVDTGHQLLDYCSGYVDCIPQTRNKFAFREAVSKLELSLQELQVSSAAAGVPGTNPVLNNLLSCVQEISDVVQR

[3] = target: T3, panel of 374 wild-type kinases (Homo sapiens, UniProt P51451); conditions: read-out: % Enzyme Activity (relative to DMSO controls), BLK
T3 construct: purchased Reaction Biology Corporation
T3 sequence (P51451 whole entry): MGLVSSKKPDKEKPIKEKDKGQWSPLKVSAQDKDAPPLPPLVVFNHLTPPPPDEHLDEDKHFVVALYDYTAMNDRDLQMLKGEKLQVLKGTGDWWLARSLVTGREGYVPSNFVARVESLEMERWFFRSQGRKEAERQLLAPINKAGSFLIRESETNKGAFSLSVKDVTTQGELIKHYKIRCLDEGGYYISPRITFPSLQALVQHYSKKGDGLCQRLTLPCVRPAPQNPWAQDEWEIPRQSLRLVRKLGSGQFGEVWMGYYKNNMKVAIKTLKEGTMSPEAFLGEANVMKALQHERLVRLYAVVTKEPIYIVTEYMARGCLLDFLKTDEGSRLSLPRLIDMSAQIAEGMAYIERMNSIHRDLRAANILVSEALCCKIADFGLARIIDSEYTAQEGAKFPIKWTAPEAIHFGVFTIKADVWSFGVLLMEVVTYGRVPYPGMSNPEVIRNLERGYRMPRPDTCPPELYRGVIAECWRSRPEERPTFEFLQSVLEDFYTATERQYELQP

[4] = target: T4, panel of 374 wild-type kinases (Homo sapiens, UniProt P51955); conditions: read-out: % Enzyme Activity (relative to DMSO controls), NEK2
T4 construct: purchased Reaction Biology Corporation
T4 sequence (P51955 1-445): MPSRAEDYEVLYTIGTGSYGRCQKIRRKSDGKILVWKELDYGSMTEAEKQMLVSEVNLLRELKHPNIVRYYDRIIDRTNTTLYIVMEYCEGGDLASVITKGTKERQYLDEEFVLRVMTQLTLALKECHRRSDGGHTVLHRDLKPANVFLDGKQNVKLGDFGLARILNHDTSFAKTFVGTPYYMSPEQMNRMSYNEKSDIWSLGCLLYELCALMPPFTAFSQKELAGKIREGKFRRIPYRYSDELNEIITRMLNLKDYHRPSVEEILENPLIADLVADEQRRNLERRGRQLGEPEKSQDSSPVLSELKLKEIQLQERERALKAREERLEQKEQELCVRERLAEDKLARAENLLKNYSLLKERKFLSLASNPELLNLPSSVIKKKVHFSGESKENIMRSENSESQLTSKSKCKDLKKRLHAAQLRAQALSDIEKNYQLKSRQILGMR

[5] = target: T5, panel of 374 wild-type kinases (Homo sapiens, UniProt P53355); conditions: read-out: % Enzyme Activity (relative to DMSO controls), DAPK1
T5 construct: purchased Reaction Biology Corporation
T5 sequence (P53355 whole entry): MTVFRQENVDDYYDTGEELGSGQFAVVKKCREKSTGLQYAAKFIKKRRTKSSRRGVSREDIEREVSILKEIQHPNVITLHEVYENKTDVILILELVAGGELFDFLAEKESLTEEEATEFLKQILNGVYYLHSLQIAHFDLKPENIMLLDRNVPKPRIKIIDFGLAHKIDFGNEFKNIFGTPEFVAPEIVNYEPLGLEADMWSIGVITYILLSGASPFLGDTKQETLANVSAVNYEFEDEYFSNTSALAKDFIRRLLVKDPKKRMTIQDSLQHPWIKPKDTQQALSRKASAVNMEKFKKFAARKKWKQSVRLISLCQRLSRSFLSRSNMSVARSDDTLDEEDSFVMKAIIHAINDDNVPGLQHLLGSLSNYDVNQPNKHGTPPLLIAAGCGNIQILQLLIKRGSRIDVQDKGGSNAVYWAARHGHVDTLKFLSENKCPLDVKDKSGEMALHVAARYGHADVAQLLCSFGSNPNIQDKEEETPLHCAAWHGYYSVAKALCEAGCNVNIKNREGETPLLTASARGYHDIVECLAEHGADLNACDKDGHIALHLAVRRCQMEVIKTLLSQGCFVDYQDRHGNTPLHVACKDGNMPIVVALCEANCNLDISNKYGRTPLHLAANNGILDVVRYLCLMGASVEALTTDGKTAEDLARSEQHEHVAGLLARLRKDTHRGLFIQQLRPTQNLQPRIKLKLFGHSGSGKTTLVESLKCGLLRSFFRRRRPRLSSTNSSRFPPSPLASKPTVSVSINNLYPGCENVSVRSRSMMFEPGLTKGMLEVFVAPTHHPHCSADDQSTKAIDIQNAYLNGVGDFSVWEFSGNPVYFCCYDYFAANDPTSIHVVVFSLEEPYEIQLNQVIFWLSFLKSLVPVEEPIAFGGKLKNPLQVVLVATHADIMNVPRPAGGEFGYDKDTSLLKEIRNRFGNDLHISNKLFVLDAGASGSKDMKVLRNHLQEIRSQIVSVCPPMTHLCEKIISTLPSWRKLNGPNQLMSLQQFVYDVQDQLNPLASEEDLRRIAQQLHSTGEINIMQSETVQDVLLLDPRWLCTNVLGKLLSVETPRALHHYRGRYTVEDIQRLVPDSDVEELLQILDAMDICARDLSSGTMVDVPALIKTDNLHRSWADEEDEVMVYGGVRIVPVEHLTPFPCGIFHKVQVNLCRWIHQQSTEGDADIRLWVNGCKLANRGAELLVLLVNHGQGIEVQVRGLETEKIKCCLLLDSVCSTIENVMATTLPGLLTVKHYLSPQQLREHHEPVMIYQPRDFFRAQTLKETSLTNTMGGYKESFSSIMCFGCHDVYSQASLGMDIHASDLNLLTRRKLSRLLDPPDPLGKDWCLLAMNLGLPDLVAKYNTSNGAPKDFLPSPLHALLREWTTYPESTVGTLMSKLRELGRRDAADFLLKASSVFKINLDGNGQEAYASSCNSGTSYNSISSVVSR

[6] = target: T6, panel of 374 wild-type kinases (Homo sapiens, UniProt Q13177); conditions: read-out: % Enzyme Activity (relative to DMSO controls), kinase PAK2
T6 construct: purchased Reaction Biology Corporation
T6 sequence (Q13177 whole entry): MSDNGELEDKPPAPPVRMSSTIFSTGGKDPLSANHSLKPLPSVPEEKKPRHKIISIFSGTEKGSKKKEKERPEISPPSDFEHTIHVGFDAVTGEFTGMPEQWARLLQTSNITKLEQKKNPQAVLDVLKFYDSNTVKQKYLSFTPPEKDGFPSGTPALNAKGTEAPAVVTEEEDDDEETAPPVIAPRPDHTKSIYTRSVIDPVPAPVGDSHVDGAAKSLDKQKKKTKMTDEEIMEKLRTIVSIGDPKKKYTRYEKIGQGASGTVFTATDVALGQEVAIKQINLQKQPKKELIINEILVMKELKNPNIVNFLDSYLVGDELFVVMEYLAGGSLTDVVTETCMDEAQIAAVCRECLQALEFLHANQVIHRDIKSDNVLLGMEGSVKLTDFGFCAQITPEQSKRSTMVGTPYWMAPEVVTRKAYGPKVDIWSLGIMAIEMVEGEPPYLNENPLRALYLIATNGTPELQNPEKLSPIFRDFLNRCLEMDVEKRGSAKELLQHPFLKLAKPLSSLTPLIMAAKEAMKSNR

[7] = target: T7, panel of 374 wild-type kinases (Homo sapiens, UniProt Q8IU85); conditions: read-out: % Enzyme Activity (relative to DMSO controls), CAMK1d
T7 construct: purchased Reaction Biology Corporation
T7 sequence (Q8IU85 whole entry): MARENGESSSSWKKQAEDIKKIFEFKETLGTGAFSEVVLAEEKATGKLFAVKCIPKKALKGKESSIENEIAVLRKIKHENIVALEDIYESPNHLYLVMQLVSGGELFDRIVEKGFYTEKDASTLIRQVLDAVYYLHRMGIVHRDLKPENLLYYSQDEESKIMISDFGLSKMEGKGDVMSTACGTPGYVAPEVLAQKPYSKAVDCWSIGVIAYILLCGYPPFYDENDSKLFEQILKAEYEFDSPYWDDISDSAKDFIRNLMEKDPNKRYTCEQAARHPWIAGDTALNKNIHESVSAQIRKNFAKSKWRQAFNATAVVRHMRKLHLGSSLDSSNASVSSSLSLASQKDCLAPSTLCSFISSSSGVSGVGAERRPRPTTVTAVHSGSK

[8] = target: T8, panel of 374 wild-type kinases (Homo sapiens, UniProt Q8IVT5); conditions: read-out: % Enzyme Activity (relative to DMSO controls), KSR1
T8 construct: purchased Reaction Biology Corporation
T8 sequence (Q8IVT5 1-923): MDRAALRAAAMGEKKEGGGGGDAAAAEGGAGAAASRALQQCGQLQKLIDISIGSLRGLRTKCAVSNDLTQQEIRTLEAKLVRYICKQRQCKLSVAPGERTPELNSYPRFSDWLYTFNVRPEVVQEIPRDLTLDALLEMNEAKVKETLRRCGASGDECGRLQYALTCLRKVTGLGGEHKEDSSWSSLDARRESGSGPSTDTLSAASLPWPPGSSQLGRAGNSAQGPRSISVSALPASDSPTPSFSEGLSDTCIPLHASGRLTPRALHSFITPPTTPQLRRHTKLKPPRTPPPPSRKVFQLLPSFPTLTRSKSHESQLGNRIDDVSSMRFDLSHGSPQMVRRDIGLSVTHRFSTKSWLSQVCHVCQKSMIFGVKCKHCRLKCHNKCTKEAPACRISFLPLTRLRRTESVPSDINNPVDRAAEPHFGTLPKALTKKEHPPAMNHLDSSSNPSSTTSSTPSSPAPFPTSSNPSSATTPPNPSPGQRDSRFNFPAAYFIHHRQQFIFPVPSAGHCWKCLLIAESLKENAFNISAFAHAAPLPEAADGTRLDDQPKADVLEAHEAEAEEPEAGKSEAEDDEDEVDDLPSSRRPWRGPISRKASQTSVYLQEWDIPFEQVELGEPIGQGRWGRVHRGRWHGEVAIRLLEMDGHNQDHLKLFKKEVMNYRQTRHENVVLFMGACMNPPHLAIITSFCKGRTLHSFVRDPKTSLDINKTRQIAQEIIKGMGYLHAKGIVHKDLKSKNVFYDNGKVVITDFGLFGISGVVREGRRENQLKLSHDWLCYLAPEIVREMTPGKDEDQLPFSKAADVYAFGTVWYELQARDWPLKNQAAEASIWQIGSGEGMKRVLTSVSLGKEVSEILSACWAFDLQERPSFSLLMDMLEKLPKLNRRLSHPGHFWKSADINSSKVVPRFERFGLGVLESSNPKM

[9] = target: T9, panel of 374 wild-type kinases (Homo sapiens, UniProt Q96S53); conditions: read-out: % Enzyme Activity (relative to DMSO controls), kinase TESK2
T9 construct: purchased Reaction Biology Corporation

T1 sequence (P22607 23-806): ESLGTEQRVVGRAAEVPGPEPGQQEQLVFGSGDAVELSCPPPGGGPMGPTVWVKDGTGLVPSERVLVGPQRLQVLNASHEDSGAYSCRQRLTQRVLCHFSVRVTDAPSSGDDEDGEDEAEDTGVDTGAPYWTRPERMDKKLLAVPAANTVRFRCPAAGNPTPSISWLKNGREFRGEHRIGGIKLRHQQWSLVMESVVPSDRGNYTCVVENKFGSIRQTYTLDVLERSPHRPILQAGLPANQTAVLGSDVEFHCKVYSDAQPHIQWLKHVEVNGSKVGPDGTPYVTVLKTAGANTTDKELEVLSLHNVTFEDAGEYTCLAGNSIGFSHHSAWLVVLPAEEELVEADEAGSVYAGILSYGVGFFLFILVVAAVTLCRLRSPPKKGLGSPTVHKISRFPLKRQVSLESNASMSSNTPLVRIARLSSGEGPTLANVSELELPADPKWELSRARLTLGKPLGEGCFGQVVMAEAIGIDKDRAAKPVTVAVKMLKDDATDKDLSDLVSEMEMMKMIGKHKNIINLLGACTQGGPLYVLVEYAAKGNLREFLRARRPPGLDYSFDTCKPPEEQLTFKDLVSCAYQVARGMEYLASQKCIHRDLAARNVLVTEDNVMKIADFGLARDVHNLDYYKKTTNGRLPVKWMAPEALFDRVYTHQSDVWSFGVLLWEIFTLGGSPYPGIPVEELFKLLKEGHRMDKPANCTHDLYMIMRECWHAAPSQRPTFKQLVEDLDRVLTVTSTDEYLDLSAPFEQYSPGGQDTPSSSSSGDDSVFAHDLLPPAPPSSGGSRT

O=C(Nc1cnn(-c2csc(C(=O)NC3COC3)c2)c1)Nc1ccccc1Cl [Compound 17, 4-(4-(3-(2-chlorophenyl)ureido)-1H-pyrazol-1-yl)-N-(oxetan-3-yl)thiophene-2-carboxamide]
remaining activity at 5 µM [1]: 97.8%
remaining activity at 5 µM [2]: 92.7%
remaining activity at 5 µM [3]: 79.2%
remaining activity at 5 µM [4]: 104%
remaining activity at 5 µM [5]: 104%
remaining activity at 5 µM [6]: 90.1%
remaining activity at 5 µM [7]: 104%
remaining activity at 5 µM [8]: 101%
remaining activity at 5 µM [9]: 93.3%

Cc1sc(C(=O)NC2COC2)cc1-n1cc(NC(=O)Nc2c(F)cccc2Cl)cn1 [Compound 27, 4-(4-(3-(2-chloro-6-fluorophenyl)ureido)-1H-pyrazol-1-yl)-5-methyl-N-(oxetan-3-yl)thiophene-2-carboxamide]
remaining activity at 10 µM ([1]; 10 uM): 137%
remaining activity at 10 µM ([2]; 10 uM): 123%
remaining activity at 10 µM ([3]; 10 uM): 112%
remaining activity at 10 µM ([4]; 10 uM): 88%
remaining activity at 10 µM ([5]; 10 uM): 104%
remaining activity at 10 µM ([6]; 10 uM): 106%
remaining activity at 10 µM ([7]; 10 uM): 105%
remaining activity at 10 µM ([8]; 10 uM): 103%
remaining activity at 10 µM ([9]; 10 uM): 99.2%

O=C(Nc1cnn(-c2csc(C(=O)NC3COC3)c2)c1)Nc1c(F)cccc1Cl [Compound 25, 4-(4-(3-(2-chloro-6-fluorophenyl)ureido)-1H-pyrazol-1-yl)-N-(oxetan-3-yl)thiophene-2-carboxamide]
remaining activity at 5 µM [1]: 92%
remaining activity at 5 µM [2]: 88.7%
remaining activity at 5 µM [3]: 96.1%
remaining activity at 5 µM [4]: 96.2%
remaining activity at 5 µM [5]: 98.9%
remaining activity at 5 µM [6]: 95.3%
remaining activity at 5 µM [7]: 99.6%
remaining activity at 5 µM [8]: 105%
remaining activity at 5 µM [9]: 80.1%
